According to paper PMC12169615, “Fluorescent 4‑Nitrobenzo-2-oxa-1,3-diazole-Coupled Bile Acids as Probe Substrates of Hepatic and Intestinal Bile Acid Transporters of the Solute Carrier Families SLC10 and SLCO” (Journal of Medicinal Chemistry, 2025):
Where “and” joins values, the source holds several entries; their conditions need not be identical. Identical values can stand only once.

Legend:
human ASBT = target: T1, human ASBT (Homo sapiens, UniProt Q12908); experiment: Transport kinetics of conjugated 3-NBD-BA (concentration-dependent uptake); format: cell-based; parameters: stably transfected with the full open reading frames of human NTCP, ASBT, SOAT, OATP1B1, and OATP1B3; expressed in transfected cells; conditions: for Transport rates via ASBT across the entire concentration range: ASBT-HEK293, 10 min, +Na+ vs -Na+, not considered biologically meaningful
T1 sequence (Q12908 1-348): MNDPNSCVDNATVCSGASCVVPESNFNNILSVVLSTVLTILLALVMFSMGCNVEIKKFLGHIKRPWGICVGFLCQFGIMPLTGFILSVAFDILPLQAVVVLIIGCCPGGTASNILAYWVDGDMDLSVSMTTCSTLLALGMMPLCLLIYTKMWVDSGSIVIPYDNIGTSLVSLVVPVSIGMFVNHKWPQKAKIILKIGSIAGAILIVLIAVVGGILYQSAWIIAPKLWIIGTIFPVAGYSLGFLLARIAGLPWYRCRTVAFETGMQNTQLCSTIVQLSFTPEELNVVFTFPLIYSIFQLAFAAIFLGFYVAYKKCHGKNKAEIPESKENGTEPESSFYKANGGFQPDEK
Procedure: (§1) In a first step, the time-dependent transport of all conjugated NBD-BA was analyzed. […] Based on these findings, an uptake phase of 10 min was selected as the most practical for subsequent kinetic transport measurements. […] In contrast, for ASBT, reliable carrier-specific concentration-dependent transport rates and K m values could only be determined for 3α-NBD-GCA (16d). The transport rates for 3β-NBD-TCA (14a), 3β-NBD-TCDCA (14b), 3β-NBD-GCA (16a), and 3α-NBD-TCA (14d) were at ≤ 2 across the entire concentration range and were therefore not considered biologically meaningful.
(§2) 7 ASBT and mAsbt transport kinetics for conjugated 3-NBD-BA. Concentration-dependent uptake of the indicated NBD-coupled BA was analyzed in HEK293 cells stably expressing human ASBT or mouse mAsbt at increasing substrate concentrations. Control experiments were performed in the absence of sodium (-Na^+). Uptake was analyzed for 10 min at 37 °C with transport buffer containing the indicated 3-NBD-BA. Afterward, the transport medium was removed, and each cell monolayer was washed and processed for fluorescence detection. Specific uptake was calculated by subtracting the nonspecific uptake in the absence of sodium (-Na^+, open symbols) from the uptake in the presence of sodium (+Na^+, closed symbols) and is shown by dotted lines. Values represent means ± SD of quadruplicate determinations. Michaelis Menten K m values were calculated by nonlinear regression analysis based on the specific uptake data. For ASBT, reliable specific uptake data could only be determined for 3α-NBD-GCA (16d).

human NTCP = target: T2, human NTCP (Homo sapiens, UniProt Q14973); experiment: as above; format: cell-based; conditions: NTCP-HEK293, 10 min uptake, 37 °C, specific (Na+-dependent) uptake
T2 construct: HEK293 cell lines stably transfected with the full open reading frames of human NTCP; expressed in transfected cells
T2 sequence (Q14973 1-349): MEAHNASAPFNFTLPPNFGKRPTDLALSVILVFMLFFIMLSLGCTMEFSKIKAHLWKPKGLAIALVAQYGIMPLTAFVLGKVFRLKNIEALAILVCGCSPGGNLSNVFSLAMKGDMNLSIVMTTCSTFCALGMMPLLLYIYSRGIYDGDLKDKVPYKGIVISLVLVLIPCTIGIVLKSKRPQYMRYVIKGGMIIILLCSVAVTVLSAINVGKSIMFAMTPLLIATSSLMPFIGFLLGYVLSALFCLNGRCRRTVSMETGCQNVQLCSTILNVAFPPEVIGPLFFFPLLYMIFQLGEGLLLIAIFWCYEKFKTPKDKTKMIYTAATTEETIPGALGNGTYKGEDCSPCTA
Procedure: as §1
as §2, with “6 NTCP” for “7 ASBT”, “mNtcp” for “mAsbt”, “NTCP” for “ASBT”, “data.” for “data. For ASBT, reliable specific uptake data could only be determined for 3α-NBD-GCA (16d).”

mouse mNtcp = target: T3, mouse mNtcp (Mus musculus, UniProt O08705); experiment: as above; format: cell-based; conditions: mNtcp-HEK293, 10 min uptake, 37 °C, specific (Na+-dependent) uptake
T3 construct: stably transfected with the full open reading frames of human NTCP, ASBT, SOAT, OATP1B1, and OATP1B3 as well as mouse mNtcp and mAsbt; expressed in transfected cells
T3 sequence (O08705 1-362): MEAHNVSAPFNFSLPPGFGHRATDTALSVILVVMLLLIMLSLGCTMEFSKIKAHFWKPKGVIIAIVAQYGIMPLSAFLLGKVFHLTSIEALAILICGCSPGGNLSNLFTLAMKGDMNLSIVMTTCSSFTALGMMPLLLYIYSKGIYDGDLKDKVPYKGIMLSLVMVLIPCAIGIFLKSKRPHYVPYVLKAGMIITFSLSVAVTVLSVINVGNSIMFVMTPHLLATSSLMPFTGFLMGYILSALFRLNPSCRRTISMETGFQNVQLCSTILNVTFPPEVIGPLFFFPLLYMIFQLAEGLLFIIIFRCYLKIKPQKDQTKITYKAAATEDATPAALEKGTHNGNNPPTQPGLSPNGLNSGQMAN
Procedure: as §1
as §2, with “6 NTCP” for “7 ASBT”, “mNtcp” for “mAsbt”, “NTCP” for “ASBT”, “data.” for “data. For ASBT, reliable specific uptake data could only be determined for 3α-NBD-GCA (16d).”

[1] = parameters: method as in not given; conditions: ref not given, cited from earlier work

| SMILES | Transport rates via ASBT across the entire concentration range (human ASBT) | K m NTCP (human NTCP) | K m mNtcp (mouse mNtcp) [µM] | K m ASBT (human ASBT; ASBT-HEK293, 10 min uptake, 37 °C, specific (Na+-dependent) uptake) [µM] | Fate in the liver (metabolism, secretion into bile) ([1]; in situ liver perfusion with bile duct cannulation) | Amount injected recovered in the bile ([1]; in situ liver perfusion, injected into the mesenterial vein, within 30 min) [%] |
| --- | --- | --- | --- | --- | --- | --- |
| C[C@H](CCC(=O)NCC(=O)O)[C@H]1CC[C@H]2[C@@H]3[C@H](O)C[C@@H]4C[C@@H](Nc5ccc([N+](=O)[O-])c6nonc56)CC[C@]4(C)[C@H]3C[C@H](O)[C@]12C [16a] | ≤ 2 | 43.1 µM | 17.2 | – | – | – |
| C[C@H](CCC(=O)NCC(=O)O)[C@H]1CC[C@H]2[C@@H]3[C@H](O)C[C@@H]4C[C@H](Nc5ccc([N+](=O)[O-])c6nonc56)CC[C@]4(C)[C@H]3C[C@H](O)[C@]12C [16d] | – | 36.8 µM | 5.2 | 14.5 | – | – |
| C[C@H](CCC(=O)NCCS(=O)(=O)[O-])[C@H]1CC[C@H]2[C@@H]3[C@H](O)C[C@@H]4C[C@H](Nc5ccc([N+](=O)[O-])c6nonc56)CC[C@]4(C)[C@H]3C[C@H](O)[C@]12C.[Na+] [14d] | ≤ 2 | 20.0 µM and 20 µM | 9.5 | – | completely transformed within the liver cells to a polar fluorescent metabolite that showed sparse secretion into bile | – |
| C[C@H](CCC(=O)NCCS(=O)(=O)[O-])[C@H]1CC[C@H]2[C@@H]3[C@H](O)C[C@@H]4C[C@@H](Nc5ccc([N+](=O)[O-])c6nonc56)CC[C@]4(C)[C@H]3C[C@H](O)[C@]12C.[Na+] [14a] | ≤ 2 | 29.5 µM | 20.6 | – | – | 95 |
